Results on seven compounds are retold here after patent US20150023887A1, “Antiperspirant Spray Devices and Compositions” (The Procter & Gamble Company, priority 2013, published 2015).

On the data set, the source says: Solubility may be determined by measuring the amount of light transmittance (a light transmittance value) through a simple mixture of the non-volatile silicone fluid and liquid activation enhancer at the same weight/weight concentrations as in a final antiperspirant composition.
Solubility of a liquid activation enhancer in a non-volatile silicone may be determined by measuring the amount of light transmittance (light transmittance value) through a simple mixture of the non-volatile silicone fluid and liquid activation enhancer at the same weight/weight concentrations as in a final antiperspirant composition.
The Spectronic Genesys 10 Vis utilizes a tungsten-halogen light source and has a spectral bandwidth of 5 nm, a wavelength range of 325 to 1100 nm, accuracy of ±1 nm and a repeatability of ±0.5 nm. Readouts include absorbance, transmittance and concentration. The spectrophotometer is set to 640 nm wavelength and the percent transmittance mode/readout. Polystyrene spectrometer cuvettes having a 1 cm optical light path and transmittance between ˜340 nm and ˜900 nm are used. One suitable example of a spectrometer cuvette is available from VWR International LLC under Catalog #97000-584 having a 2.5 to 4.5 ml capacity. The spectrophotometer is calibrated according to the manufacturer's instructions using a reference cuvette and composition comprised of just the non-volatile silicone fluid of interest. For example, if the test composition comprises 50 centistoke dimethicone and 15% w/w of isopropyl myristate, then the spectrometer is calibrated using a cuvette containing just 50 centistoke dimethicone. Sample cuvettes are filled sufficiently with a test composition of a non-volatile silicone fluid and liquid activation enhancer so that the light path of the spectrophotometer passes through the test composition in the cuvette. The sample cuvettes are shaken well just prior to taking a light transmittance reading.
Turning to `CCCCCCCCCCC(CO)CCCCCCCC` (centres unmarked) [octyldodecanol], the “solubility in 50 centistoke dimethicone” value is recorded as “soluble in the 50 centistoke dimethicone at some (lower) concentrations”.

With `CCCCCCCCCCCCCCCCCC(=O)OCCCC` [butyl stearate], the light transmittance value result was “about 100%”.

`CCCCCCCCCCCCCC(C)C` [isohexadecane]: the light transmittance value entry is “about 100%” and the “solubility in 50 centistoke dimethicone” value is recorded as “soluble in 50 centistoke dimethicone across the 2% to 30% w/w concentration range”.

With PPG-14 butyl ether, the “solubility in 50 centistoke dimethicone” value is listed as “insoluble in 50 centistoke dimethicone across the 2% to 30% w/w concentration range”.

For the compound `CCCCCCCCCCCCCCCC(=O)OC(C)C` [isopropyl palmitate], the light transmittance value entry is recorded as “about 101%”.

Take `CCCCCCCCCCCCCC(=O)OC(C)C` [isopropyl myristate]: the light transmittance value entry was “about 101%”.

For mineral oil, the “solubility in 50 centistoke dimethicone” value was “soluble in 50 centistoke dimethicone at some (lower) concentrations”.
